Test [1] addresses T1, LXRα ligand-binding domain (LBD) (Homo sapiens, UniProt Q13133).
T1 construct: expressed in transfected cells; host or cells: HEK293
T1 sequence (Q13133 155-447): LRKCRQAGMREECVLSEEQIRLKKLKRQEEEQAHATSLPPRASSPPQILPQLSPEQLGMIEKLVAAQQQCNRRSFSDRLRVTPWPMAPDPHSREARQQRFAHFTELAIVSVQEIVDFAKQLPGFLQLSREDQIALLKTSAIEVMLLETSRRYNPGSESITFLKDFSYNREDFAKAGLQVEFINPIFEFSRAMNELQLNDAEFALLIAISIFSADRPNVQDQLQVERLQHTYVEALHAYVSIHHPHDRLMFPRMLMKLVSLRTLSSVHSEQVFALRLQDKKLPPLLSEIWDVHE
As to the kind of experiment: LXR Gal4 reporter transient transfection assay (M2H), Gal4α LBD. It counts as cell-based. Conditions: HEK293 cells; read-out: M2H Gal4α LBD activity range (EC50). Summed up: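 Mammalian two-hybrid in HEK293 cells transiently transfected with LXRα/β full-length or LBD fused to NFkB activation domain, plus GAL4-DBD fusions of SRC1 coactivator or NCoR corepressor domains and a GAL4-responsive firefly luciferase reporter. Compounds added 4 h post-transfection (vehicle ≤0.2% DMSO), 16 h incubation; firefly luciferase normalized to Renilla.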

The subject of test [2] is Fasn. As to the kind of experiment: Short term HFD mouse model, gene expression in liver tissue: Fasn. The format is in vivo. Conditions: liver mRNA (qPCR, normalized to Tbp), three oral doses of 20 mg/kg, HFD mice. The protocol: (§1) Short Term HFD Mouse Model:
(§2) The in vivo transcriptional regulation of several LXR target genes by LXR modulators was assessed in mice.
(§3) For this, C57BL/6J were purchased from Elevage Janvier (Rennes, France) at the age of 8 weeks. After an acclimation period of two weeks, animals were preferred on a high fat diet (HFD) (Ssniff Spezialdiaten GmbH, Germany, Surwit EF D12330 mod, Cat. No. E15771-34), with 60 kcal % from fat plus 1% (w/w) extra cholesterol (Sigma-Aldrich, St. Louis, Mo.) for 5 days. Animals were maintained on this diet during treatment with LXR modulators. […]
(§4) Upon termination, liver was collected, dipped in ice cold PBS for 30 seconds and cut into appropriate pieces. […] For the clinical chemistry analysis from plasma, alanine aminotransferase (ALT, IU/mL), cholesterol (CHOL, mg/dL) and triglycerides (TG, mg/dL) were determined using a fully-automated bench top analyzer (Respons®910, DiaSys Greiner GmbH, Flacht, Germany) with system kits provided by the manufacturer. […]
(§5) To obtain total RNA from frozen liver tissue, samples (25 mg liver tissue) were first homogenized with RLA buffer (4M guanidin thiocyanate, 10 mM Tris, 0.97% w:v β-mercapto-ethanol). […] Quantitative PCR was performed and analyzed using Prime time Gene expression master mix (Integrated DNA Technologies, Coralville, Iowa, USA) and a 384-format ABI 7900HT Sequence Detection System (Applied Biosystems, Foster City, USA). […]
For orientation: Real-time PCR tracks product formation cycle by cycle.

In test [3] the test system is Srebp1c. As to the kind of experiment: Short term HFD mouse model, gene expression in liver tissue: Srebp1c. It counts as in vivo. Conditions: liver mRNA (qPCR, normalized to Tbp), three oral doses of 20 mg/kg, HFD mice. The protocol:
as §1, §2, §3, §4, §5

Test [4] has as its system Hepatic LXR target genes. The test can be described thus: Short term HFD mouse model, hepatic LXR target genes (summary in words). The format is in vivo. Conditions: multiple oral dosing in mice. As to the method: as §1, §2, §3
To obtain total RNA from frozen liver tissue, samples (25 mg liver tissue) were first homogenized with RLA buffer (4M guanidin thiocyanate, 10 mM Tris, 0.97% w:v β-mercapto-ethanol). […] Quantitative PCR was performed and analyzed using Prime time Gene expression master mix (Integrated DNA Technologies, Coralville, Iowa, USA) and a 384-format ABI 7900HT Sequence Detection System (Applied Biosystems, Foster City, USA). The expression of the following genes was analysed: Stearoyl-CoA desaturase1 (Scd1), fatty acid synthase (Fas) and sterol regulatory element-binding protein1 (Srebp1). […]

pEC50: −log10 of the molar value.

As for `Cc1cc(C)c(S(=O)(=O)N(Cc2ccc(-c3cccc(CC(=O)O)c3)cc2)C(C)c2ccc(C(F)(F)F)o2)c(C)c1` (centres unmarked) [2/2], in test [1], the pEC50 was more than 7.00.

Turning to `Cc1cc(C)c(S(=O)(=O)N(Cc2ccc(-c3cccc(S(=O)(=O)C(C)(C)C(=O)O)c3)cc2)Cc2ccc(C(F)(F)F)o2)c(C)c1` [5/2], the pEC50 in test [1] was 6.00 to 7.00. With `Cc1cc(C)c(S(=O)(=O)N(Cc2ccc(-c3cccc(C(C)(C)C(=O)O)c3)cc2)Cc2ccc(C(F)(F)F)o2)c(C)c1` [7/5], in test [1], the pEC50 is more than 7.00.

Consider `COc1cc(-c2cccc(C(C)(C)C(=O)O)c2)ccc1CN(Cc1ccc(C(F)(F)F)o1)S(=O)(=O)c1c(C)cc(C)cc1C` [10/4], for which the pEC50 in test [1] was more than 7.00. In the case of `Cc1cc(C)c(S(=O)(=O)N(Cc2ccc(C(F)(F)F)o2)Cc2ccc(-c3cccc(C(C)(C)C(=O)O)c3)cc2Cl)c(C)c1` [10/5], the pEC50 in test [1] is more than 7.00. Also, in test [2], the “Fasn suppression compared to vehicle” value was determined as 0.41. Further, the “Srebp1c suppression compared to vehicle” value in test [3] is given as 0.33. Moreover, the “Hepatic LXR target genes (in words)” value in test [4] is “effectively suppressed”. Regarding `Cc1cc(C)c(S(=O)(=O)N(Cc2ccc(-c3cccc(CC(=O)O)c3)cc2)Cc2ccc(C(F)(F)F)o2)c(C)c1` [Example 2, 2-(4′-(((2,4,6-Trimethyl-N-((5-(trifluoromethyl)furan-2-yl)methyl)phenyl)sulfonamido)methyl)-[1,1′-biphenyl]-3-yl)acetic acid], the negative-log EC50 (pEC50) in test [1] is 6.00 to 7.00. In the case of `Cc1ccc2ccccc2c1S(=O)(=O)N(Cc1ccc(-c2cccc(C(C)(C)C(=O)O)c2)cc1)Cc1ccc(C(F)(F)F)o1` [Example 24, 2-Methyl-2-(4′-(((2-methyl-N-((5-(trifluoromethyl)furan-2-yl)methyl)naphthalene)-1-sulfonamido)methyl)-[1,1′-biphenyl]-3-yl)propanoic acid], the pEC50 in test [1] was more than 7.00. Further, the “Fasn suppression compared to vehicle” value in test [2] is 0.23. Besides, the “Srebp1c suppression compared to vehicle” value in test [3] was 0.25. Further, the “Hepatic LXR target genes (in words)” value in test [4] was “effectively suppressed”. On to `Cc1cc(C)c(S(=O)(=O)N(Cc2ccc(-c3cc(F)c(CO)c(S(C)(=O)=O)c3)cc2)Cc2ccc(C(F)(F)F)o2)c(C)c1` [Example C3/2], for which, in test [1], the pEC50 is more than 7.00.

For orientation: pEC50 means the negative decadic logarithm of the EC50, by convention in mol/L.
